Data: US10123993B2, “Cyclic ureas as inhibitors of rock” (BRISTOL-MYERS SQUIBB COMPANY, priority 2015, dated 2018)

Each molecule was assayed against ROCK2 (Homo sapiens, UniProt O75116) (assay: ROCK2 kinase inhibition assay (Caliper LABCHIP, FITC peptide substrate)). Settings: 5 μM ATP, 1.5 μM peptide substrate; value ranges.
Type: biochemical
In short: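 Dose-response curves gave IC50 from inhibition of peptide phosphorylation, measured by LabChip separation after EDTA stop. Reactions used 1.5 μM FITC-labelled peptide, 5 μM ATP, 20 mM HEPES pH 7.5 with MgCl2, Brij-35, DTT, and under 2% DMSO.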

Chain of ROCK2 (O75116 whole entry, species assumed): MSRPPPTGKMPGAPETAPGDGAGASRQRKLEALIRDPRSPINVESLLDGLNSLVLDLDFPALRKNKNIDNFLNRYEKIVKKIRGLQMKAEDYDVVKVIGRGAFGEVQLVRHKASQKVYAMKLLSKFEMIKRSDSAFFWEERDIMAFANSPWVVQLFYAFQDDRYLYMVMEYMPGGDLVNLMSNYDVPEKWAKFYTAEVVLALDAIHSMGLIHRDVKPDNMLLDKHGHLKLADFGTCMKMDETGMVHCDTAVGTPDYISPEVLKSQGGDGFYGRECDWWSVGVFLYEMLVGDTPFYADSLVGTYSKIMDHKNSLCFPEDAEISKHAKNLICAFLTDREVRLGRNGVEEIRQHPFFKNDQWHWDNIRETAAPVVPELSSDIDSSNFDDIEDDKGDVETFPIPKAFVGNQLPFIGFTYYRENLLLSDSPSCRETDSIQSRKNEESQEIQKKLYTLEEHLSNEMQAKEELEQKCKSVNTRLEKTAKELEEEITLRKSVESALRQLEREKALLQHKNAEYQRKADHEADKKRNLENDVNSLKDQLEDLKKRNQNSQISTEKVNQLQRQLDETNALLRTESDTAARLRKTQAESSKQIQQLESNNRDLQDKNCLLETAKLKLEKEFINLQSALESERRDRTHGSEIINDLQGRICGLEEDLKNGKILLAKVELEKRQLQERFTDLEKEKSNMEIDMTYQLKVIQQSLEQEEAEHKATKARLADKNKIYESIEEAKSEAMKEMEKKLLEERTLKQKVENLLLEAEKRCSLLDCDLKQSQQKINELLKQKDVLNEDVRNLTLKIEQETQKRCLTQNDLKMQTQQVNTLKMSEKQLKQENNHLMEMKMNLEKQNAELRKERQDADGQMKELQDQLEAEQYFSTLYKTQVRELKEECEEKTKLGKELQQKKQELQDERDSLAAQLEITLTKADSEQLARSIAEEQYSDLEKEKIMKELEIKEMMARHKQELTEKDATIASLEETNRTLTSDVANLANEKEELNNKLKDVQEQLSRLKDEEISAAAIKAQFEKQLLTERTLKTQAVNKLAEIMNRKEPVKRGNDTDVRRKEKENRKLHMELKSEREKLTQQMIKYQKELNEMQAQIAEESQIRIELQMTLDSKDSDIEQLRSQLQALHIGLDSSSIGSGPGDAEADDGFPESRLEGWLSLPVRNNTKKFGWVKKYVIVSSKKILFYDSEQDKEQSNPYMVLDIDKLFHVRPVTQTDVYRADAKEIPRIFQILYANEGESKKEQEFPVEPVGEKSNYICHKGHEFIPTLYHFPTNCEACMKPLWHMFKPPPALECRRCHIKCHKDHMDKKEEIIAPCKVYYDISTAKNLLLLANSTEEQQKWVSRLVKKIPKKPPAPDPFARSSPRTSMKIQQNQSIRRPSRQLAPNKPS

Row | Compound | IC50
1 | O=c1n(Cc2cccc(OCC3CC3)c2)ccn1-c1ccc(-c2cn[nH]c2)cn1 [Example 347, 1-(5-(1H-pyrazol-4-yl)pyridin-2-yl)-3-(3-(cyclopropylmethoxy)benzyl)-1H-imidazol-2(3H)-one] | 20.1 to 200 nM
2 | CCc1cc(-n2ccn(Cc3ccc(F)c(OC)c3)c2=O)ccc1-c1cn[nH]c1 [Example 348, 1-(3-ethyl-4-(1H-pyrazol-4-yl)phenyl)-3-(4-fluoro-3-methoxybenzyl)-1H-imidazol-2(3H)-one] | 20.1 to 200 nM
3 | COc1cccc(C(C(=O)O)n2ccn(-c3ccc(-c4cn[nH]c4)cn3)c2=O)c1 (stereo not drawn) [Example 351, 2-(3-(5-(1H-pyrazol-4-yl)pyridin-2-yl)-2-oxo-2,3-dihydro-1H-imidazol-1-yl)-2-(3-methoxyphenyl)acetic acid] | 200 to 2000 nM
4 | COc1cccc(C(C(=O)O)n2ccn(-c3ccc(-c4cn[nH]c4)c(OC)c3)c2=O)c1 (stereo not drawn) [Example 352, 2-(3-(3-methoxy-4-(1H-pyrazol-4-yl)phenyl)-2-oxo-2,3-dihydro-1H-imidazol-1-yl)-2-(3-methoxyphenyl)acetic acid] | 200 to 2000 nM
5 | COc1ccc(F)c(Cn2ccn(-c3ccc(-c4cn[nH]c4)c(OC)n3)c2=O)c1 [Example 373, 1-(2-fluoro-5-methoxybenzyl)-3-(6-methoxy-5-(1H-pyrazol-4-yl)pyridin-2-yl)-1H-imidazol-2(3H)-one] | < 2 nM
6 | COc1ccc(F)cc1Cn1ccn(-c2ccc(-c3cn[nH]c3)c(OC)n2)c1=O [Example 374, 1-(5-fluoro-2-methoxybenzyl)-3-(6-methoxy-5-(1H-pyrazol-4-yl)pyridin-2-yl)-1H-imidazol-2(3H)-one] | 2.1 to 20 nM
7 | COc1nc(-n2ccn(Cc3cccc(F)c3F)c2=O)ccc1-c1cn[nH]c1 [Example 375, 1-(2,3-difluorobenzyl)-3-(6-methoxy-5-(1H-pyrazol-4-yl)pyridin-2-yl)-1H-imidazol-2(3H)-one] | 2.1 to 20 nM
8 | COc1cccc(Cn2ccn(-c3ccc(-c4cn[nH]c4)c(OC)n3)c2=O)c1 [Example 376, 1-(6-methoxy-5-(1H-pyrazol-4-yl)pyridin-2-yl)-3-(3-methoxybenzyl)-1H-imidazol-2(3H)-one] | < 2 nM
9 | COc1nc(-n2ccn(Cc3ccc(F)c(OCC4CC4)c3)c2=O)ccc1-c1cn[nH]c1 [Example 377, 1-(3-(cyclopropylmethoxy)-4-fluorobenzyl)-3-(6-methoxy-5-(1H-pyrazol-4-yl)pyridin-2-yl)-1H-imidazol-2(3H)-one] | 2.1 to 20 nM
10 | COc1nc(-n2ccn(Cc3cccc(OCC4CC4)c3)c2=O)ccc1-c1cn[nH]c1 [Example 378, 1-(3-(cyclopropylmethoxy)benzyl)-3-(6-methoxy-5-(1H-pyrazol-4-yl)pyridin-2-yl)-1H-imidazol-2(3H)-one] | < 2 nM
11 | COc1nc(-n2ccn(Cc3cccc(F)c3C)c2=O)ccc1-c1cn[nH]c1 [Example 380, 1-(3-fluoro-2-methylbenzyl)-3-(6-methoxy-5-(1H-pyrazol-4-yl)pyridin-2-yl)-1H-imidazol-2(3H)-one] | < 2 nM
12 | COc1nc(-n2ccn(Cc3ccc(F)cc3C)c2=O)ccc1-c1cn[nH]c1 [Example 381, 1-(4-fluoro-2-methylbenzyl)-3-(6-methoxy-5-(1H-pyrazol-4-yl)pyridin-2-yl)-1H-imidazol-2(3H)-one] | 2.1 to 20 nM
13 | COc1nc(-n2ccn(Cc3cc(F)ccc3C)c2=O)ccc1-c1cn[nH]c1 [Example 382, 1-(5-fluoro-2-methylbenzyl)-3-(6-methoxy-5-(1H-pyrazol-4-yl)pyridin-2-yl)-1H-imidazol-2(3H)-one] | 2.1 to 20 nM
14 | COc1cc(F)ccc1Cn1ccn(-c2ccc(-c3cn[nH]c3)c(OC)n2)c1=O [Example 383, 1-(4-fluoro-2-methoxybenzyl)-3-(6-methoxy-5-(1H-pyrazol-4-yl)pyridin-2-yl)-1H-imidazol-2(3H)-one] | 20.1 to 200 nM
15 | COc1nc(-n2ccn(Cc3cc(F)cc(OCC4CC4)c3)c2=O)ccc1-c1cn[nH]c1 [Example 395, 1-(3-(cyclopropylmethoxy)-5-fluorobenzyl)-3-(6-methoxy-5-(1H-pyrazol-4-yl)pyridin-2-yl)-1H-imidazol-2(3H)-one] | 2.1 to 20 nM
16 | O=c1n(Cc2cc(F)cc(OCC3CC3)c2)ccn1-c1ccc(-c2cn[nH]c2)cc1 [Example 396, 1-(4-(1H-pyrazol-4-yl)phenyl)-3-(3-(cyclopropylmethoxy)-5-fluorobenzyl)-1H-imidazol-2(3H)-one] | 20.1 to 200 nM
17 | Cc1c(F)cccc1Cn1ccn(-c2ccc(-c3cn[nH]c3)cc2)c1=O [Example 402, 1-(4-(1H-pyrazol-4-yl)phenyl)-3-(3-fluoro-2-methylbenzyl)-1H-imidazol-2(3H)-one] | 2.1 to 20 nM
18 | Cc1cc(F)ccc1Cn1ccn(-c2ccc(-c3cn[nH]c3)cc2)c1=O [Example 403, 1-(4-(1H-pyrazol-4-yl)phenyl)-3-(4-fluoro-2-methylbenzyl)-1H-imidazol-2(3H)-one] | 20.1 to 200 nM
19 | Cc1ccc(F)cc1Cn1ccn(-c2ccc(-c3cn[nH]c3)cc2)c1=O [Example 404, 1-(4-(1H-pyrazol-4-yl)phenyl)-3-(5-fluoro-2-methylbenzyl)-1H-imidazol-2(3H)-one] | 20.1 to 200 nM
20 | COc1c(F)cccc1Cn1ccn(-c2ccc(-c3cn[nH]c3)cc2)c1=O [Example 405, 1-(4-(1H-pyrazol-4-yl)phenyl)-3-(3-fluoro-2-methoxybenzyl)-1H-imidazol-2(3H)-one] | 20.1 to 200 nM

Row | Compound | IC50
21 | O=c1n(Cc2cccc(F)c2F)ccn1-c1ccc(-c2cn[nH]c2)cc1 [Example 406, 1-(4-(1H-pyrazol-4-yl)phenyl)-3-(2,3-difluorobenzyl)-1H-imidazol-2(3H)-one] | 20.1 to 200 nM
22 | COc1cc(Cn2ccn(-c3ccc(-c4cn[nH]c4)cc3)c2=O)ccc1F [Example 407, 1-(4-(1H-pyrazol-4-yl)phenyl)-3-(4-fluoro-3-methoxybenzyl)-1H-imidazol-2(3H)-one] | 20.1 to 200 nM
23 | O=c1n(Cc2cc(F)ccc2F)ccn1-c1ccc(-c2cn[nH]c2)cc1 [Example 408, 1-(4-(1H-pyrazol-4-yl)phenyl)-3-(2,5-difluorobenzyl)-1H-imidazol-2(3H)-one] | 20.1 to 200 nM
24 | O=c1n(Cc2ccc(F)cc2F)ccn1-c1ccc(-c2cn[nH]c2)cc1 [Example 409, 1-(4-(1H-pyrazol-4-yl)phenyl)-3-(2,4-difluorobenzyl)-1H-imidazol-2(3H)-one] | 20.1 to 200 nM
25 | O=c1n(Cc2cccnc2)ccn1-c1ccc(-c2cn[nH]c2)cc1 [Example 410, 1-(4-(1H-pyrazol-4-yl)phenyl)-3-(pyridin-3-ylmethyl)-1H-imidazol-2(3H)-one] | 20.1 to 200 nM
26 | COc1cc(F)ccc1Cn1ccn(-c2ccc(-c3cn[nH]c3)cc2)c1=O [Example 412, 1-(4-(1H-pyrazol-4-yl)phenyl)-3-(4-fluoro-2-methoxybenzyl)-1H-imidazol-2(3H)-one] | 200 to 2000 nM
27 | COc1nc(-n2ccn(Cc3cccc(F)c3)c2=O)ccc1-c1cn[nH]c1 [Example 413, 1-(3-fluorobenzyl)-3-(6-methoxy-5-(1H-pyrazol-4-yl)pyridin-2-yl)-1H-imidazol-2(3H)-one] | < 2 nM
28 | COc1nc(-n2ccn(Cc3ccc(F)cc3F)c2=O)ccc1-c1cn[nH]c1 [Example 414, 1-(2,4-difluorobenzyl)-3-(6-methoxy-5-(1H-pyrazol-4-yl)pyridin-2-yl)-1H-imidazol-2(3H)-one] | 20.1 to 200 nM
29 | COc1nc(-n2ccn(Cc3cc(F)ccc3F)c2=O)ccc1-c1cn[nH]c1 [Example 415, 1-(2,5-difluorobenzyl)-3-(6-methoxy-5-(1H-pyrazol-4-yl)pyridin-2-yl)-1H-imidazol-2(3H)-one] | 2.1 to 20 nM
30 | COc1nc(-n2ccn(Cc3cccc(F)c3OC)c2=O)ccc1-c1cn[nH]c1 [Example 416, 1-(3-fluoro-2-methoxybenzyl)-3-(6-methoxy-5-(1H-pyrazol-4-yl)pyridin-2-yl)-1H-imidazol-2(3H)-one] | 2.1 to 20 nM
31 | COc1nc(-n2ccn(Cc3cccnc3)c2=O)ccc1-c1cn[nH]c1 [Example 417, 1-(6-methoxy-5-(1H-pyrazol-4-yl)pyridin-2-yl)-3-(pyridin-3-ylmethyl)-1H-imidazol-2(3H)-one] | 2.1 to 20 nM
32 | COc1nc(-n2ccn(CC3CCCO3)c2=O)ccc1-c1cn[nH]c1 (stereo not drawn) [Example 418, 1-(6-methoxy-5-(1H-pyrazol-4-yl)pyridin-2-yl)-3-((tetrahydrofuran-2-yl)methyl)-1H-imidazol-2(3H)-one] | 20.1 to 200 nM
33 | COc1nc(-n2ccn(Cc3cccc(OC(F)F)c3)c2=O)ccc1-c1cn[nH]c1 [Example 419, 1-(3-(difluoromethoxy)benzyl)-3-(6-methoxy-5-(1H-pyrazol-4-yl)pyridin-2-yl)-1H-imidazol-2(3H)-one] | < 2 nM
34 | COc1nc(-n2ccn(CC3CCCCC3)c2=O)ccc1-c1cn[nH]c1 [Example 420, 1-(cyclohexylmethyl)-3-(6-methoxy-5-(1H-pyrazol-4-yl)pyridin-2-yl)-1H-imidazol-2(3H)-one] | 20.1 to 200 nM
35 | COc1cccc(CN2CCN(c3cc(OC)c(-c4cn[nH]c4)cn3)C2=O)c1 [Example 423, 1-(4-Methoxy-5-(1H-pyrazol-4-yl)pyridin-2-yl)-3-(3-methoxybenzyl)imidazolidin-2-one] | 2.1 to 20 nM
36 | COc1ccc(F)cc1CN1CCN(c2ccc(-c3cn[nH]c3)c(F)c2)C1=O [Example 424, 1-(5-fluoro-2-methoxybenzyl)-3-(3-fluoro-4-(1H-pyrazol-4-yl)phenyl)imidazolidin-2-one] | 2.1 to 20 nM
37 | COc1cc(F)cc(CN2CCN(c3ccc(-c4cn[nH]c4)c(F)c3)C2=O)c1 [Example 425, 1-(3-fluoro-4-(1H-pyrazol-4-yl)phenyl)-3-(3-fluoro-5-methoxybenzyl)imidazolidin-2-one] | < 2 nM
38 | COc1ccc(F)c(CN2CCN(c3ccc(-c4cn[nH]c4)c(F)c3)C2=O)c1 [Example 426, 1-(3-fluoro-4-(1H-pyrazol-4-yl)phenyl)-3-(2-fluoro-5-methoxybenzyl)imidazolidin-2-one] | 2.1 to 20 nM
39 | COc1cccc(CN2CCN(c3ccc(-c4cn[nH]c4)cn3)C2=O)c1F [Example 427, 1-(5-(1H-pyrazol-4-yl)pyridin-2-yl)-3-(2-fluoro-3-methoxybenzyl)imidazolidin-2-one] | 20.1 to 200 nM
